In patent US20100022620A1, “EPITOPE REDUCTION THERAPY” (priority 2006, published 2010):
pIC50: −log10 of the molar value.

Tests used:
[1] = tested on: RAW cells; experiment: TLC immuno-overlay of RAW cell ganglioside extract with GBS patient serum (anti-GM1 binding); assay type: cell-based; conditions: for GBS patient sera antibody binding to GM1: RAW cells grown in 0 to 1000 μM drug, patient '8' serum (FIG. 13)
Description: GSL was extracted from RAW cells incubated in a range of NB-DNJ and NB-DGJ concentrations from 0 to 1 mM and separated by TLC. Extract was run parallel to purified GM1 on duplicate TLC plates. Immuno-overlay was carried out using patient ‘8’ and control ‘4’ sera.
The procedure was then repeated with standardisation of the amount of material loaded onto the gel (FIG. 14). This was calculated using the bicinchoninic acid protein quantification method (Chan et al., 1993). […] No binding was observed when the overlay was conducted with control serum, indicating specificity of this effect to GBS auto-antibody.

[2] = tested on: RAW cells; experiment: Orcinol-stained TLC of GM1 in RAW cell extract; assay type: cell-based; conditions: for pIC50: GM1 in RAW cells, stated only as comparable to 50 μM, read-out: apparent IC50 estimated from orcinol stained RAW TLC; for levels of GM1 in RAW cells: orcinol staining, 0 to 1000 μM drug (FIG. 15)
Text: A third TLC plate (FIG. 15) with standardised amounts of sample was run in an identical manner to those in FIG. 14 but stained with orcinol.

[3] = tested on: PC12 cells; experiment: HPLC analysis of PC12 gangliosides; assay type: cell-based; conditions: for ganglioside depletion in PC12 cells: HPLC (FIG. 17)
Description: In the absence of detectable binding by TLC immuno-overlay, a new technique was necessary to analyse the identity and relative abundance of gangliosides present on PC12 cells. To this end, HPLC was carried out on ganglioside extracted from PC12 cells grown in a range of NB-DGJ and NB-DNJ concentrations from 0-1 mM.

[4] = tested on: Neuroblastoma NB1 cells; experiment: Fluorescence microscopy of sera binding to Neuroblastoma NB1 cells; assay type: cell-based; conditions: NB1 cells treated with various concentrations; some GBS serum samples such as patient 7
Text: This non-specific staining hinders interpretation of results when using whole sera. Cell staining indicated the necessity for a technique which provides isolated antigen, thereby reducing the potential of non-specific staining.

[5] = cited from earlier work; for CNS penetration: mouse, in vivo; for neurological side effects: treatment of adult mice
[6] = tested on: total ganglioside and GM1 content; conditions: cerebrum-brainstem; cited from earlier work
[7] = tested on: GSL biosynthesis; conditions: compared with NB-DNJ; cited from earlier work
[8] = mouse models of GSL storage diseases; cited from earlier work
[9] = tested on: PC12 cells; experiment: Immunocytology: anti-GT1b antibody binding to PC12 cells by flow cytometry; assay type: cell-based; conditions: for reduction in anti-ganglioside antibody binding: 3 days of exposure, anti-GT1b mAb
Description: (§1) PC12 cells were grown under standard undifferentiated conditions with and without a range of NB-DNJ concentrations (1, 5, 10, 50, 100 and 500 μM). Cells were grown in flasks for immunocytology and analytical studies on ganglioside levels and also in 96-well tissue culture plates for antibody mediated lysis studies. Time points examined were day 0, 1, 2 and 3, and 2 and 3 days post-compound wash out.
PC12 cells were grown in DMEM containing 7.5% FCS and 7.5% horse serum. The medium was supplemented with 0, 1, 5, 10, 50, 100 or 500 μM NB-DNJ and the cells cultured for 3 days. The media was then replaced with DMEM without NB-DNJ and the cells cultured for a further 3 days. At days 0, 1, 2, 3 and days 2 and 3 post NB-DNJ treatment, cells were harvested and ganglioside levels assessed by analysing anti-ganglioside antibody binding using flow cytometry. Briefly, 1×10^5 cells were stained with 10 μg/ml of a murine anti-GT1b mAb for 1 hour at room temperature. Binding was then detected by a FITC labelled antibody with specificity for mouse IgG. Binding is expressed in FIGS. 2 and 3 as the mean fluorescence of triplicate experiments. To allow any reduction in ganglioside levels to be clearly visualised at each time point, the mean fluorescence is shown as a percentage of that at day 0. Error bars indicate sem.

[10] = tested on: PC12 cells; experiment: Anti-ganglioside antibody / complement-mediated lysis of PC12 cells (LDH release); assay type: cell-based
Description: as §1
The consequences of reduced anti-ganglioside antibody binding treated cells were evaluated by measuring antibody-mediated cytotoxicity (FIGS. 4 and 5). Thus, cells from each day and NB-DNJ concentration were also assayed for anti-ganglioside antibody-mediated cytotoxicity. Lysis studies were conducted using anti-ganglioside antibodies in conjunction with fresh human serum as a source of complement. Cell viability was quantitated by colourimetric assay measuring LDH release upon cell lysis.
After coating onto 96 well tissue culture plates (5×10^3 cells/well), the cells were incubated with anti-GT1b antibody at 10 μg/ml for 1 hour at room temperature. Then, 10% human serum was added as a source of complement for a further hour at 37° C. Complement-mediated cell lysis was measured using a Cytotox 96 cytotoxic assay kit (Promega), following the instructions supplied. LDH released upon cell lysis was measured by a colourimetric assay; a tetrazolium salt is converted into a red formazan product. […]

[11] = tested on: PC12 cells; experiment: HPLC analysis of GSL levels in NB-DNJ treated PC12 cells; assay type: cell-based; conditions: day 3, PC12 cells, preliminary analysis
Description: as §1
HPLC analysis of the treated and untreated cells was performed to determine the extent of GSL depletion that results from NB-DNJ treatment.

[12] = tested on: GSL levels; conditions: mice, cited from earlier work
[13] = tested on: sialyltransferase; conditions: cited from earlier work
[14] = target: T1, human α-1,3-fucosyltransferase V (Homo sapiens, UniProt Q11128); conditions: in the presence of guanosine diphosphate (GDP); cited from earlier work
T1 sequence (Q11128 1-374): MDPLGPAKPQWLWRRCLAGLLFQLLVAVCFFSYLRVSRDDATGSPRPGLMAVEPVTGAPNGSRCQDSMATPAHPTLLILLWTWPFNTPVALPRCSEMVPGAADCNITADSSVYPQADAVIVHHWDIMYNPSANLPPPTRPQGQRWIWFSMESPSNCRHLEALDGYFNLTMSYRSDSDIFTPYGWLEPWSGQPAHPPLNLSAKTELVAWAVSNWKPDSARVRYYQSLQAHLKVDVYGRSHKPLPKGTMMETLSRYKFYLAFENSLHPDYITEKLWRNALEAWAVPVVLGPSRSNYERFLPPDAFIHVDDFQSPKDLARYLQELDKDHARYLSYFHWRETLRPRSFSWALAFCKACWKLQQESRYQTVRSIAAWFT

[15] = tested on: rat recombinant α-2,3-ST; conditions: cited from earlier work
[16] = target: T2, rat recombinant α-2,6-ST (Rattus norvegicus, UniProt P13721); conditions: cited from earlier work
T2 sequence (P13721 1-403): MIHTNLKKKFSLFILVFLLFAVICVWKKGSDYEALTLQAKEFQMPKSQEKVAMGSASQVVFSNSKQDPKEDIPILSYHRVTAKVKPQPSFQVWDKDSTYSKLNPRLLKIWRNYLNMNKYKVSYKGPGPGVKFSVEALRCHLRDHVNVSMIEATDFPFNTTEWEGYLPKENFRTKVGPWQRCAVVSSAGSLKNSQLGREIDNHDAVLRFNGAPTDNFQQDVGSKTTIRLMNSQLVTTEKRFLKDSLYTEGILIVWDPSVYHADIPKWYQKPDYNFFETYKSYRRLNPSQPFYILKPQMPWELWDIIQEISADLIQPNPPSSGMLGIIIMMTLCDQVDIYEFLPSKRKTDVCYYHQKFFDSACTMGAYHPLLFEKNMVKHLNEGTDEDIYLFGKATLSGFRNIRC

[17] = RAW cells, standardised amount of material (FIG. 14)

CCCCN1C[C@H](O)[C@@H](O)[C@@H](O)[C@H]1CO [NB-DGJ, N-butyldeoxygalactonojirimycin]
GBS patient sera antibody binding to GM1 [1]: drug dependent decrease | drug dependent decrease in antibody binding to GM1, comparison of the two drugs ([1]; RAW cells, FIG. 13): slightly more efficient | decrease of patient anti-GM1 antibody binding, comparison of the two drugs [1, 17]: more pronounced | patient anti-GM1 antibody binding as drug concentration was increased [1, 17]: progressively lower levels | pIC50 [2]: ~4.30 | levels of GM1 in RAW cells [2]: drug dependent decrease | ganglioside depletion in PC12 cells ([3]; 50 μM): significant ganglioside depletion | ganglioside depletion in PC12 cells ([3]; 1 mM): Further depletion | inhibitor potency, comparison of the two drugs ([3]; PC12 cells, HPLC): more a potent inhibitor | fluorescence of serum binding on drug-treated cells [4]: decrease in fluorescence | CNS penetration [5]: penetrate the CNS | neurological side effects [5]: not to cause neurological side effects | total ganglioside and GM1 content [6]: marked reduction | inhibition of GSL biosynthesis [7]: comparably to NB-DNJ | tolerability [8]: very well tolerated

CCCCN1C[C@H](O)[C@@H](O)[C@H](O)[C@H]1CO [NB-DNJ, N-butyldeoxynojirimycin]
anti-ganglioside antibody binding ([9]; 50 μM and higher concentrations): significant time dependent reduction | reduction in anti-ganglioside antibody binding ([9]; 100 μM): 70% | reduction in anti-ganglioside antibody binding ([9]; 500 μM): 90% | anti-ganglioside antibody binding after wash out of the compound ([9]; by day 3 post wash out): returning to the levels of untreated cells | protection from complement mediated lysis ([10]; 100 uM): approximately 60% | protection from complement mediated lysis ([10]; 500 uM): ~80% | GSL levels [11]: 10-20 % of control | GBS patient sera antibody binding to GM1 [1]: drug dependent decrease | patient anti-GM1 antibody binding as drug concentration was increased [1, 17]: progressively lower levels | pIC50 [2]: ~4.30 | levels of GM1 in RAW cells [2]: drug dependent decrease | ganglioside depletion in PC12 cells ([3]; 50 μM): significant ganglioside depletion | ganglioside depletion in PC12 cells ([3]; 1 mM): Further depletion | fluorescence of serum binding on drug-treated cells [4]: decrease in fluorescence | time at which effect on GSL levels stabilizes [12]: 10 days | GSL levels ([12]; within a day of treatment): measurable decrease | CNS penetration [5]: penetrate the CNS | neurological side effects [5]: not to cause neurological side effects

C[C@@H]1O[C@@H](O[C@H]2[C@H](O[C@H]3[C@H](O[C@H]4CC[C@@]5(C)[C@@H](CC[C@]6(C)[C@@H]5CC=C5[C@@H]7CC(C)(C)C[C@@H](O)[C@]7(C)CC[C@]56C)[C@@]4(C)CO)O[C@H](C(=O)O)[C@@H](O)[C@@H]3O)O[C@H](CO)[C@H](O)[C@@H]2O)[C@H](O)[C@H](O)[C@H]1O [Soyasaponin I]
sialyltransferase inhibition [13]: potent and specific

CCCO[C@H]1O[C@H](CO)[C@@H](O[C@@H]2O[C@H](CO)[C@H](O)[C@H](O)[C@H]2O)[C@H](OCCN2C(C)C(O)C(O)C(O)C2CO)[C@H]1NC(C)=O (stereo partly drawn) [propyl 2-acetamido-2-deoxy-4-O-(β-D-galactopyranosyl)-3-O-(2-(N-(β-L-homofaconojirimycinyl))ethyl)-α-D-glucopyranoside]
inhibition of human α-1,3-fucosyltransferase V [14]: effective inhibitor

cytidin-5′-yl sialylethylphosphonate
pIC50 [15]: 4.33 | pIC50 [16]: 3.47
